Experimental data reported in article PMC9137037 (Frontiers in Oncology, 2022).
Where no end group is shown, it is not given here.

System: CT26 colon carcinoma cells
Experiment: CT26 tumor challenge in immunized syngeneic BALB/c mice
Assay type: in vivo, mouse
Method: The peptide vaccine MVF-PD-1(92-110) was dissolved in sterile water and mixed with either ISA 720 or ISA 51 (1:1) ratio. We utilized the well-established murine colon carcinoma cell line CT26 tumor model in syngeneic BALB/c mice to evaluate the effects of vaccination previously described ([23]). Briefly, 6–8-week-old female BALB/c mice were immunized with the peptide vaccine, and 2 weeks after the third immunization, the mice were challenged with 1×10^5 CT26 colon cancer cells by subcutaneous injection (SC). The CT26 cancer cell line was maintained in the DMEM medium with 10% FBS 5% CO2 at 37 °C. Phosphate-buffered saline (PBS)-treated mice were set as negative control, while the positive control group mice were treated with an anti-mouse PD-1 monoclonal antibody (clone 29F.1A12; Bio X Cell, West Lebanon, NH, USA) with 200 μg/dose per mouse. Blood was collected biweekly after the primary immunization until 2 weeks after the third immunization. Tumor growth was monitored daily, especially 7 days after the tumor challenge. The mice were euthanized at the end of treatment, and the tumors were extracted and weighed.
The mice in PBS and mAb (29F.1A12) groups, n = 10; group 1 to group 7, n = 8, group 8 n = 7 (one mouse was lost due to a non-immunization related reason before the challenge).
The mice challenged with CT26 tumor cells were monitored at least twice per week and tumor sizes were measured by calipers. The formula, volume (LWW) = (length × width × width)/2, was used to calculate tumor volumes. All values are shown as means ± standard deviation. Data statistical analysis was performed by GraphPad Prism 8.1.2 (GraphPad Software, Inc. San Diego, CA, USA) and the indicated statistical analysis. The percentage of tumor growth inhibition (%TGI) was defined as the difference between the median tumor volume (MTV) of the treatment group with the PBS control group, and the value was calculated by the following formula: %TGI=100*(MTV control − MTV test)/MTV control. The percentage of complete response (CR) was defined as the tumor volume equal to or less than 50 mm^3 for at least 3 consecutive measurements during the study. The log-rank (Mantel−Cox) test was used to compare the percentage of CR in multiple groups. Student’s t-test was used to analyze the difference between the two groups. One-way analysis of variance (one-way ANOVA) followed by the Tukey’s multiple comparison test were used to compare data in multiple groups or data between groups in multiple groups, and the two-way ANOVA was used to analyze the whole curve comparison. The log-rank (Mantel−Cox) test was use to compare the survival curves. A p-value or an adjusted p-value less than 0.05 was accepted as a statistically significant difference.
To verify and confirm the previous immunogenicity studies and antitumor activities of PD-1(92-110) ([23]), 6–8-week-old BALB/c mice were vaccinated with MVF-PD-1(92-110) every 2- or 3- week intervals. Peptide cancer vaccine (100 μg) mixed with ISA 720 (1:1) or ISA 51 (1:1) or nor-MDP 33 μg were used per mice. Mice were boosted with the designed doses of vaccine every 2- or 3-week intervals for a total of 3 vaccine shots. Blood was collected weekly for monitoring antibody titers. After 2 weeks of the third immunization (3Y), mice were challenged with CT26 colon carcinoma cells for 1×10^5 cells per mouse. The tumor growths were monitored and checked daily, especially 7 days post-challenge, and the tumor size was measured with calipers ( Figure 1A ). For the positive control group, we treated the mice with an anti-mouse PD-1 antibody (clone 29F.1A12) twice a week for up to three weeks, while the negative control group was treated with PBS. The mice CT26 tumor model study was separated into 10 different groups, post-challenge treated with PBS as the negative control group or an anti-mouse PD-1 antibody (clone 29F.1A12) as positive control group ( Figure 1B ). Group 1 to group 8 comprised the peptide vaccine treatment groups. […]

Sequence: KLLSLIKGVIVHRLEGVEGPSLGAISLAPKAQIKESLRAEL [MVF-PD-1(92-110)]
- percentage of complete response (CR) (CR = tumor volume ≤50 mm^3 for at least 3 consecutive measurements, combined immunized groups vs PBS and mAb 29F.1A12, log-rank): higher percentage of complete response
- tumor burden vs PBS and vs 29F.1A12 (summary) (mouse, CT26, Figures 2G, H): PD-1(92) significant less tumor burden vs. PBS, no difference vs. 29F.1A12 ( Figures 2G, H );
- 2-week vs. 3-week immunization interval (summary) (mouse, CT26, Figures 2G-I): 2-week vs. 3-week no difference ( Figures 2G-I );
- ISA 720 vs ISA 51 (summary) (mouse, CT26, Figures 2G-I): ISA 720 vs ISA 51 no difference ( Figures 2G-I );
- No nor-MDP vs nor-MDP (summary) (mouse, CT26, Figures 2G-I): No nor-MDP vs nor-MDP no difference ( Figures 2G-I );
- tumor size (LWW) versus the PBS group (two-way ANOVA of whole-curve comparison, p-value less than 0.01, majority of the mice): significantly inhibited
